Source: US20040077591A1, “Histone deacetylase inhibitors for the treatment of multiple sclerosis, amyotrophic lateral sclerosis and Alzheimer's Disease” (The Brigham and Women's Hospital, Inc., priority 2002, published 2004)
Marks after values point to notes of the source that are not given here.

How the values were obtained:
[1] = test system: experimental autoimmune encephalomyelitis (EAE) in mice; experiment: MOG-induced EAE in mice, clinical disability scoring; format: in vivo, C57BL/6 female mice; conditions: for EAE clinical disability: TSA 7.5 mg/kg/dose/d i.p., apparent in the chronic (days 20-40) phase
Excerpt: FIG. 1—Efficacy of HDAC inhibitor treatment in reducing the clinical manifestations of experimental autoimmune encephalomyelitis (EAE) in mice. Mean clinical scores reflect reduced clinical disability by TSA in the neurodegenerative phase of EAE (● TSA-treated; ◯ vehicle-treated) (*P<0.05 by Fisher's protected least significant difference (PLSD) test). The remission phase lasted from days 19 to 34 following disease induction in a first experiment, days 21 to 32 in a second experiment. Animals were scored for signs of disability using the following widely used scale: 1, limp tail or isolated weakness of gait without limp tail; 2, partial hind leg paralysis; 3, total hind leg or partial hind and front leg paralysis and/or urinary incontinence; 4, total hind leg and partial front leg paralysis; 5, moribund or dead animal (with minor modifications from Issazadeh et al. (1998)). The definitions used were: (1) mean peak remission: mean of maximal score reached during remission, and (2) mean % days of severity: mean % of days with scores ≧2.
Experimental autoimmune encephalomyelitis (EAE) is the most widely accepted animal model for multiple sclerosis. […] Medications that currently modify the disease course in humans also modify the disease course in the animal model. The inventor has used the C57BL/6J mice (female mice 6-8 weeks old from Jackson Laboratories) for the experiments, which involve the administration of myelin oligodendrocyte glycoprotein (MOG), a myelin antigen, that induces autoimmunity against the brain tissue. EAE can also be induced in laboratory mice and rats using other myelin antigens.
Efficacy of HDAC inhibitor treatment in reducing the clinical manifestations of experimental autoimmune encephalomyelitis (EAE) in mice. The inventor injected 6-8 week-old C57BL/6 female mice (Jackson Laboratories, Bar Harbor, Me.) subcutaneously with 150 μg myelin oligodendrocyte glycoprotein (MOG)35-55 peptide (Quality Controlled Biochemicals, Hopkinton, Mass.) in PBS and CFA containing 0.4 mg of Mycobacterium tuberculosis (H37Ra, Difco, Detroit, Mich.), and i.p. on days 1 and 3 with 200 ng Pertussis (List Biological, Campbell, Calif.). TSA (7.5 mg/kg/dose/d i.p.) (Biomol, Plymouth Meeting, Pa. and Wako, Richmond, Va.) in PBS (9):DMSO (1) vehicle was begun on day 4. Ten mice were given vehicle and 9 were given TSA in a first experiment, wherease a second experiment utilized 15 per group.

caspases 3 and 9 = experiment: Western analysis of caspases in CNS tissue of EAE mice; format: in vivo
Excerpt: FIGS. 7A-B—Densitometry of bands from western analysis of brain tissue proteins isolated from HDAC inhibitor-treated and vehicle-treated mice. […] Activated caspase 9 is decreased by oral sodium phenylbutyrate (SPB) and by intraperitoneal TSA. Both findings correlate with clinical improvement in these animal models.
Mechanisms of protection by HDAC inhibitors. (1) Decreased caspase activation leading to enhanced neuronal survival. […] Caspase 3 is known to be activated in rat EAE spinal cords (Ahmed et al., 2002), and correlates with retinal ganglion cell loss and optic neuritis-related disability (Meyer et al., 2001). Neuronal overexpression of the anti-caspase factor Bcl-2 ameliorates EAE (Offen et al., 2000). Caspase 3 also has the ability to modulate Bcl2 and activate upstream caspases triggered by Fas (Woo et al., 1999), an apoptotic pathway implicated in EAE (Sabelko et al., 1997). Finally, CNS activation of caspases has been implicated in the progression of Alzheimer's disease (AD) (Pompl et al., 2003). Thus, the inventor proposes that blockade of neuronal caspase activation is a mechanism by which HDAC inhibitors ameliorate neuronal death in these disorders (EAE, ALS and AD).

[2] = test system: spleen tissue from EAE mice; experiment: Quantitative RT-PCR on spleen tissue of EAE mice; format: in vivo; conditions: TSA-treated EAE mice
Method: FIG. 8—Identification of gene expression changes induced by HDAC inhibitors in vivo, using reverse transcriptase polymerase chain reaction (RT-PCR). CNS and spleen tissue samples from EAE mice were used to isolate RNA. One step real time quantitative RT-PCR (QRT-PCR) was then performed in triplicate for each sample (n=3 per group of mice) with SYBR Green and an ABI Prism 7700 Sequence Detection System (PE Applied Biosystems, Foster City, Calif.).
d) Quantitative RT-PCR (QRT-PCR) on CNS and spleen tissues from TSA-treated EAE mice detects numerous genes modulated by this HDAC inhibitor. […] QRT-PCR unveiled new CNS effects of TSA (FIG. 8), including upregulation of the neuronal trait genes sodium channel Nav1.2 and dopamine β hydroxylase (Dbh), and downregulation of the pro-apoptotic factors caspase 2 (casp2) and apoptosis inducing factor (Aif). In spleen tissues, QRT-PCR confirmed elevation of Ifna7 and Adipsin and downregulation of Igκ V22 mRNAs, and unveiled downregulation by TSA of multiple inflammatory factors, such as IL-8 receptor, IL-2 receptor, IL-12, and the costimulatory molecule CD28, from pathways implicated in MS (Glabinsk and Ransohoff, 2001; Dangond, 2002).

CC(/C=C/C(=O)NO)=C\[C@@H](C)C(=O)c1ccc(N(C)C)cc1 [TSA, Trichostatin A]
Mean % Days of Severity (mean % of days with scores ≧2) ([1]; TSA 7.5 mg/kg/dose/d i.p. from day 4, P = 0.0011 vs vehicle): 33.9 ± 4.3** %
Days of Onset (Clinical EAE) ([1]; TSA 7.5 mg/kg/dose/d i.p. from day 4, two separate exp. pooled): 13 ± 0.5 days
EAE clinical disability [1]: decrease in EAE clinical disability
EAE clinical disability ([1]; listed as Trichostatin A): effective in reducing EAE in mice
Mean Peak Remission Phase (mean of maximal score reached during remission) ([1]; clinical score scale 1-5, TSA 7.5 mg/kg/dose/d i.p. from day 4, P = 0.0036 vs vehicle): 1.8 ± 0.1*
Activated caspase 9, densitometry of western bands, brain tissue (caspases 3 and 9; intraperitoneal TSA vs vehicle-treated mice): decreased
activation of caspases 3 and 9 in CNS tissue (caspases 3 and 9; intraperitoneal TSA, MS (EAE) mice, western analysis): decreased activation of caspases 3 and 9
Adipsin mRNA by QRT-PCR [2]: elevation
CD28 mRNA by QRT-PCR [2]: downregulation
IL-2 receptor mRNA by QRT-PCR [2]: downregulation
IL-8 receptor mRNA by QRT-PCR [2]: downregulation
IL-12 mRNA by QRT-PCR [2]: downregulation
Ifna7 mRNA by QRT-PCR [2]: elevation
Igκ V22 mRNA by QRT-PCR [2]: downregulation
